Measured values as given in patent publication US10822349B2, “Macrocyclic purines for the treatment of viral infections” (JANSSEN SCIENCES IRELAND UNLIMITED COMPANY, priority 2012, dated 2020).

What was measured:
human TLR7 = target: T1, human TLR7 (Homo sapiens, UniProt Q9NYK1); experiment: TLR7 cellular reporter assay (HEK293 TLR7-NFκB-luc); format: cell-based; details: lowest effective concentration; HEK293 transiently transfected with TLR7 and NFκB-luc; 6 hours incubation
T1 construct: expressed in transfected cells; host or cells: HEK293
T1 sequence (Q9NYK1 27-1049): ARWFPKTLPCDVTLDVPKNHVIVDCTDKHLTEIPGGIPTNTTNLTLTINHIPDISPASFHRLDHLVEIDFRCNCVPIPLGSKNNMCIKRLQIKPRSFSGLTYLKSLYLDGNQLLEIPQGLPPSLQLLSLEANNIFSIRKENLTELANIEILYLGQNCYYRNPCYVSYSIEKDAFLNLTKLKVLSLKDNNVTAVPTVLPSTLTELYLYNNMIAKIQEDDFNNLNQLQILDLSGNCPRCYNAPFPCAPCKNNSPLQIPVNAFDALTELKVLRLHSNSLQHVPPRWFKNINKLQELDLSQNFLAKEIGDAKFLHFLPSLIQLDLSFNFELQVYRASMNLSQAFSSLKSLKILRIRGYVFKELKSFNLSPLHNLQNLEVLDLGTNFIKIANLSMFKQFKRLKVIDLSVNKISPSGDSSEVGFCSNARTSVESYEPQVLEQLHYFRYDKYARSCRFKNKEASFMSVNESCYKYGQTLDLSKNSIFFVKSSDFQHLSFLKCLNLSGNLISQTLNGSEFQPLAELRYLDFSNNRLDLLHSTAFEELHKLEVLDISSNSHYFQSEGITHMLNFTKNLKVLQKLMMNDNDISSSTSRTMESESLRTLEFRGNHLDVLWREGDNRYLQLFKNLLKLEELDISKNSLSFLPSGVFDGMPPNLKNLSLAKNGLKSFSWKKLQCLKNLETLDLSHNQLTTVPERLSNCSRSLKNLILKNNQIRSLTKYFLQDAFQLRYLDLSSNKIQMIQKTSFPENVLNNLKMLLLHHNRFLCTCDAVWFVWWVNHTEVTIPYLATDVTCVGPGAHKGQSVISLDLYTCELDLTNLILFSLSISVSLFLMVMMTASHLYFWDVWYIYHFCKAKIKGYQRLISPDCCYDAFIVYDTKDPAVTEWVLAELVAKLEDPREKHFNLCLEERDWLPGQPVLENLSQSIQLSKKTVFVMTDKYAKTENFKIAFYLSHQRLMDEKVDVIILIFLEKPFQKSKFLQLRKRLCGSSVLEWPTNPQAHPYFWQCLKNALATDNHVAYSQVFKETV
Protocol: The ability of compounds to activate human TLR7 and TLR8 was assessed in a cellular reporter assay using HEK293 cells transiently transfected with a TLR7 or TLR8 expression vector and NFκB-luc reporter construct. Briefly, HEK293 cells were grown in culture medium (DMEM supplemented with 10% FCS and 2 mM Glutamine). For transfection of cells in 10 cm dishes, cells were detached with Trypsin-EDTA, transfected with a mix of CMV-TLR7 or TLR8 plasmid (750 ng), NFκB-luc plasmid (375 ng) and a transfection reagent and incubated 48 hours at 37° C. in a humidified 5% CO2 atmosphere. Transfected cells were then detached with Trypsin-EDTA, washed in PBS and resuspended in medium to a density of 1.67×10^5 cells/mL. Thirty microliters of cells were then dispensed into each well in 384-well plates, where 10 μL of compound in 4% DMSO was already present. Following 6 hours incubation at 37° C., 5% CO2, the luciferase activity was determined by adding 15 μl of Steady Lite Plus substrate (Perkin Elmer) to each well and readout performed on a ViewLux ultraHTS microplate imager (Perkin Elmer). Dose response curves were generated from measurements performed in quadruplicates. Lowest effective concentrations (LEC) values, defined as the concentration that induces an effect which is at least two fold above the standard deviation of the assay, were determined for each compound.

[1] = test system: interferon production in human PBMC; experiment: Interferon production in human PBMC, read out on HEK-ISRE-luc reporter cells; format: cell-based; details: lowest effective concentration, PBMC supernatant after overnight incubation transferred to HEK-ISRE-luc cells; for minimal effective concentration: Homo sapiens, PBMC, 24 h, read-out: PBMC HEK-ISRE-luc (LEC; μM)
Protocol: Activation of human TLR7 results in robust production of interferon by plasmacytoid dendritic cells present in human blood. The potential of compounds to induce interferon was evaluated by determination of interferon in the conditioned media from peripheral blood mononuclear cells (PBMC). The presence of interferon in the samples was determined, using an interferon reporter cell line stably expressing an interferon-stimulated responsive elements (ISRE)-luc reporter construct. The ISRE element with sequence GAAACTGAAACT (SEQ ID: 1) is highly responsive to the STAT1-STAT2-IRF9 transcription factor, which becomes activated upon binding of IFN-I to the IFN receptor. Briefly, PBMCs were prepared from buffy coats of at least two donors using a standard Ficoll centrifugation protocol. Isolated PBMCs were resuspended in RPMI medium supplemented with 10% human AB serum and 2×10^5 cells/well were dispensed into 384-well plates containing compounds (70 μL total volume). After overnight incubation of the PBMCs with the compounds, 10 μL of supernatant was transferred to 384-well plates containing 5×10^3 HEK-ISRE-luc cells/well in 30 μL (plated the day before). Following 24 hours of incubation, activation of the ISRE elements was measured by assaying luciferase activity using 40 μL/well Steady Lite Plus substrate (Perkin Elmer) and measured with ViewLux ultraHTS microplate imager (Perkin Elmer). The stimulating activity of each compound on the HEK-ISRE-luc cells was reported as LEC. The LEC in turn indicates the degree of ISRE activation on transfer of a defined amount of PBMC culture medium. Recombinant interferon alfa-2a (Roferon-A) was used as a standard control compound.

SMILES	HEK293 TLR7-NFκB-luc (LEC; μM) (human TLR7)	minimal effective concentration [1]	PBMC HEK-ISRE-luc (LEC; μM) ([1]; 24 hours)
Nc1nc2nc3c1nc(O)n3Cc1ccc(cc1)C/C=C\CCCCO2 [Compound 36]	12.45 µM	0.68 µM	
Nc1nc2nc3c1nc(O)n3Cc1cc(ccn1)OC/C=C\CCO2 [Compound 37]	0.8 µM	0.12 µM	
Nc1nc2nc3c1nc(O)n3Cc1cccc(c1)OCCCCCO2 [Compound 38]	0.53 µM	0.027 µM	
Nc1nc2nc3c1nc(O)n3Cc1ncccc1/C=C\CCCCO2 [Compound 42]	2.28 µM	0.5 µM	
Nc1nc2nc3c1nc(O)n3Cc1cccc(c1)OCCCCCCO2 [Compound 43]	0.11 µM	0.034 µM	
Nc1nc2nc3c1nc(O)n3Cc1ncccc1OC/C=C/CCO2 [Compound 44]	5.77 µM	0.62 µM	
Nc1nc2nc3c1nc(O)n3Cc1ncccc1OC/C=C\CCO2 [Compound 45]	0.108 µM	0.01 µM	
Nc1nc2nc3c1nc(O)n3Cc1cccc(n1)CC/C=C\CCO2 [Compound 46]	6.49 µM	1.13 µM	
Nc1nc2nc3c1nc(O)n3Cc1ccccc1C/C=C\CCO2 [Compound 48]	0.64 µM	2.04 µM	
Nc1nc2nc3c1nc(O)n3Cc1cccc(n1)OC/C=C/CCCO2 [Compound 49]	0.21 µM	0.16 µM	
Nc1nc2nc3c1nc(O)n3Cc1ncccc1OCCCCCO2 [Compound 50]	1.19 µM	0.24 µM	
Nc1nc2nc3c1nc(O)n3Cc1cc(ccn1)OC/C=C/CCO2 [Compound 51]	0.74 µM	0.069 µM	
Nc1nc2nc3c1ncn3Cc1cccc(c1)C/C=C\CCO2 [Compound 52]	7.96 µM	4.8 µM	
COc1cc2cc(c1)OCCCCOc1nc(N)c3nc(O)n(c3n1)C2 [Compound 53]	0.029 µM	0.01 µM	
Nc1nc2nc3c1ncn3Cc1cccc(c1)OC/C=C\CO2 [Compound 55]	>25 µM	15.3 µM	
COc1ccc2cc1OCCCCOc1nc(N)c3nc(O)n(c3n1)C2 [Compound 56]	0.056 µM	0.01 µM	
COc1ccc2cc1OC/C=C\COc1nc(N)c3nc(O)n(c3n1)C2 [Compound 57]	0.08 µM	0.021 µM	
Nc1nc2nc3c1nc(O)n3Cc1cc(ccn1)OCCCCCO2 [Compound 58]	0.63 µM	0.086 µM	
COc1c2cccc1OCCCCOc1nc(N)c3nc(O)n(c3n1)C2 [Compound 59]	4.41 µM	1.92 µM	
COc1ccc2cc1OC/C=C\COc1nc(N)c3nc(O)n(c3n1)C2 [Compound 60]	0.088 µM		0.033 µM

SMILES	HEK293 TLR7-NFκB-luc (LEC; μM) (human TLR7)	minimal effective concentration [1]	PBMC HEK-ISRE-luc (LEC; μM) ([1]; 24 hours)
COc1c2cccc1OC/C=C/COc1nc(N)c3nc(O)n(c3n1)C2 [Compound 61]	4.7 µM	4.98 µM	
COc1c2cccc1OC/C=C\COc1nc(N)c3nc(O)n(c3n1)C2 [Compound 62]	7.26 µM	2.03 µM	
COc1ccc2cc1Cn1c(O)nc3c(N)nc(nc31)OC/C=C/CO2 [Compound 63]	0.12 µM	0.031 µM	
Nc1nc2nc3c1nc(O)n3CCc1cccc(c1)OCCCCO2 [Compound 64]	1.49 µM	0.5 µM	
COc1cc2cc(c1)OC/C=C\COc1nc(N)c3nc(O)n(c3n1)C2 [Compound 65]	0.038 µM	0.03 µM	
COc1ccc2cc1CCCCCOc1nc(N)c3nc(O)n(c3n1)C2 [Compound 66]	0.032 µM	0.018 µM	
COc1ccc2cc1C/C=C\CCOc1nc(N)c3nc(O)n(c3n1)C2 [Compound 67]	0.0024 µM	0.0028 µM	
COc1ccc2cc1C/C=C/CCOc1nc(N)c3nc(O)n(c3n1)C2 [Compound 68]	0.006 µM	0.0057 µM	
COc1ccc2cc1Cn1c(O)nc3c(N)nc(nc31)OCCCCC2 [Compound 69]	0.2 µM	0.039 µM	
COc1ccc2cc1Cn1c(O)nc3c(N)nc(nc31)OCCCCO2 [Compound 70]	0.15 µM	0.04 µM	
CC1CCOc2cccc(c2)Cn2c(O)nc3c(N)nc(nc32)OC1 (centres unmarked) [Compound 71]	0.12 µM	0.04 µM	
COc1ccc2cc1Cn1c(O)nc3c(N)nc(nc31)OCC/C=C\C2 [Compound 72]	0.018 µM	0.0029 µM	
COc1ccc2cc1Cn1c(O)nc3c(N)nc(nc31)OCC/C=C/C2 [Compound 73]	0.045 µM	0.01 µM	
COc1ccc2cc1Cn1c(O)nc3c(N)nc(nc31)OC/C=C\CO2 [Compound 74]	0.1 µM	0.044 µM	
Nc1nc2nc3c1nc(O)n3Cc1ccccc1OCCCCO2 [Compound 76]	0.12 µM	0.064 µM	
Nc1nc2nc3c1nc(O)n3Cc1ccccc1OC/C=C\CO2 [Compound 77]	0.53 µM	0.1 µM	
Nc1nc2nc3c1ncn3Cc1ncccc1OC/C=C/CCO2 [Compound 78]	9.68 µM	> 25 µM	
Nc1nc2nc3c1ncn3Cc1ncccc1OC/C=C\CCO2 [Compound 79]	2.34 µM	1.78 µM	
Nc1nc2nc3c1nc(O)n3Cc1cccc(c1)OCC(=O)NCCCO2 [Compound 80]	0.041 µM	0.087 µM	
Nc1nc2nc3c1nc(O)n3Cc1ccc(cc1)OC/C=C/CCCO2 [Compound 81]	4.59 µM	0.63 µM	
